Where only a bound is given, the exact number is not on record here.

The first test concerns the target T1, mutant MGL (Homo sapiens, UniProt Q99685, L169S/L176S).
T1 sequence (Q99685 1-303 L169S/L176S): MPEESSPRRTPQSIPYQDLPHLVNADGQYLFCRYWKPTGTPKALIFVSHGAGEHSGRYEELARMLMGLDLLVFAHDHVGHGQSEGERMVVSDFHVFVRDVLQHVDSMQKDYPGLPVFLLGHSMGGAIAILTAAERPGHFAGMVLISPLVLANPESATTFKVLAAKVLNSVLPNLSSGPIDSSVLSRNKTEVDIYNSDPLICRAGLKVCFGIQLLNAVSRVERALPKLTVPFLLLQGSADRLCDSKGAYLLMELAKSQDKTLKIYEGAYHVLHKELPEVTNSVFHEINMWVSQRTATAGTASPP
Kind of test: MGL ThermoFluor assay - mutant. Type of test: binding. The conditions noted are these: ThermoFluor concentration-response, read-out: MGL mutant ThermoFluor Kd.
As to `O=C(c1ccccc1)N1CCN(C2CN(C(=O)c3ccc(-c4cc(Cl)cc(Cl)c4)cc3)C2)CC1` [Cpd 79, 1-{1-[(3′,5′-Dichlorobiphenyl-4-yl)carbonyl]azetidin-3-yl}-4-(phenylcarbonyl)piperazine], the dissociation constant (Kd) was found to be 26.6 nM.

As to `O=C(c1ccccc1)N1CCN(C2CN(C(=O)c3cccn(Cc4cccc(Cl)c4)c3=O)C2)CC1` [Cpd 562, 1-(3-Chlorobenzyl)-3-({3-[4-(phenylcarbonyl)piperazin-1-yl]azetidin-1-yl}carbonyl)pyridin-2(1H)-one], the equilibrium dissociation constant (Kd) was > 31200 nM.

For the compound `O=C(c1ccc(Oc2ccccn2)cc1)N1CC(N2CCN(C(=O)c3nccs3)CC2)C1` [Cpd 913, 1-(1-{[4-(Pyridin-2-yloxy)phenyl]carbonyl}azetidin-3-yl)-4-(1,3-thiazol-2-ylcarbonyl)piperazine], the equilibrium dissociation constant (Kd) was found to be 1000 nM.

On to `CN(C)c1ccc(C(=O)N2CC(N3CCN(C(=O)c4ccccc4)CC3)C2)cc1` [Cpd 31, N,N-Dimethyl-4-({3-[4-(phenylcarbonyl)piperazin-1-yl]azetidin-1-yl}carbonyl)aniline], for which the Kd is 1430 nM.

`CC1CN(C2CN(C(=O)c3cccc(-c4ccccc4)c3)C2)CCN1C(=O)c1nccs1` (stereo not shown) [Cpd 116]: the Kd was 2000 nM.

Take `O=C(c1cscn1)N1CCN(C2CN(C(=O)c3ccc(Br)cc3Cl)C2)CC1` [Cpd 25, 1-{1-[(4-Bromo-2-chlorophenyl)carbonyl]azetidin-3-yl}-4-(1,3-thiazol-4-ylcarbonyl)piperazine]: the Kd was found to be 10000 nM.

With `O=C(c1ccccc1)N1CCN(C2CN(C(=O)c3ccc(Oc4ccc(Br)cn4)cc3)C2)CC1` [Cpd 532], the Kd turned out to be 2330 nM.

As to `O=C(c1ccccc1)N1CCN(C2CN(C(=O)c3ccc(SCc4ccc(Cl)cc4)cc3)C2)CC1` [Cpd 418], the Kd was found to be 500 nM.

Consider `Cc1cc(Br)ccc1C(=O)N1CC(N2CCN(C(=O)c3ccccc3)CC2)C1` [Cpd 22, 1-{1-[(4-Bromo-2-methylphenyl)carbonyl]azetidin-3-yl}-4-(phenylcarbonyl)piperazine], for which the Kd was > 76700 nM.

In the case of `O=C(c1ccccc1)N1CCN(C2CN(C(=O)c3ccccc3C3CCNC3)C2)CC1` (stereo not shown) [Cpd 456, 1-(Phenylcarbonyl)-4-{1-[(2-pyrrolidin-3-ylphenyl)carbonyl]azetidin-3-yl}piperazine], the Kd is > 76700 nM.

As for `Cn1c2ccccc2c2cc(C(=O)N3CC(N4CCN(C(=O)c5ccccc5)CC4)C3)ccc21` [Cpd 51, 9-Methyl-3-({3-[4-(phenylcarbonyl)piperazin-1-yl]azetidin-1-yl}carbonyl)-9H-carbazole], the Kd was 250 nM.

For the compound `Cc1nc(-c2ccc(F)cc2)sc1C(=O)N1CC(N2CCN(C(=O)c3ccccc3)CC2)C1` [Cpd 621, 1-(1-{[2-(4-Fluorophenyl)-4-methyl-1,3-thiazol-5-yl]carbonyl}azetidin-3-yl)-4-(phenylcarbonyl)piperazine], the Kd was found to be 263 nM.

For `Cn1ccnc1C(=O)N1CCN(C2CN(C(=O)c3ccc(C4CCCCC4)cc3)C2)CC1` [Cpd 3, 1-{1-[(4-Cyclohexylphenyl)carbonyl]azetidin-3-yl}-4-[(1-methyl-1H-imidazol-2-yl)carbonyl]piperazine], the Kd is 2500 nM.

In the case of `O=C(c1ccccc1)C1CCC(C(=O)N2CC(N3CCN(C(=O)c4ccccc4)CC3)C2)CC1` (stereo not shown) [Cpd 108, Phenyl[4-({3-[4-(phenylcarbonyl)piperazin-1-yl]azetidin-1-yl}carbonyl)cyclohexyl]methanone], the dissociation constant (Kd) amounted to 1250 nM.

In the case of `Cc1nc(COc2ccc(Cl)cc2)sc1C(=O)N1CC(N2CCN(C(=O)c3cscn3)CC2)C1` [Cpd 966], the Kd is 334 nM.

Turning to `O=C(/C=C/c1ccccc1Cl)N1CC(N2CCN(C(=O)c3ccccc3)CC2)C1` [Cpd 103, 1-{1-[(2E)-3-(2-Chlorophenyl)prop-2-enoyl]azetidin-3-yl}-4-(phenylcarbonyl)piperazine], the dissociation constant (Kd) was 6250 nM.

On to `CC(C)n1c(C(F)(F)F)nc2cc(C(=O)N3CC(N4CCN(C(=O)c5ccccc5)CC4)C3)ccc21` [Cpd 38, 1-(1-Methylethyl)-5-({3-[4-(phenylcarbonyl)piperazin-1-yl]azetidin-1-yl}carbonyl)-2-(trifluoromethyl)-1H-benzimidazole], for which the dissociation constant Kd worked out at 182 nM.

Take `O=C(c1ccccc1)N1CCN(C2CN(C(=O)c3ccc(Oc4ccccn4)cc3)C2)CC1` [Cpd 1484]: the Kd is 20000 nM.

Regarding `O=C(c1ccccc1)N1CCN(C2CN(C(=O)C3CCC(c4ccc(Cl)cc4)CC3)C2)CC1` (stereo not shown) [Cpd 503], the Kd is 254 nM.

In the case of `O=C(c1ccccc1)N1CCN(C2CN(C(=O)c3ccc(-c4ccccc4)c(F)c3)C2)CC1` [Cpd 81, 1-{1-[(2-Fluorobiphenyl-4-yl)carbonyl]azetidin-3-yl}-4-(phenylcarbonyl)piperazine], the Kd was determined as 66.7 nM.

As for `COc1ccc(-c2ccc(C(=O)N3CC(N4CCN(C(=O)c5ccccc5)CC4)C3)cc2)cc1` [Cpd 34, 1-{1-[(4′-Methoxybiphenyl-4-yl)carbonyl]azetidin-3-yl}-4-(phenylcarbonyl)piperazine], the Kd was 588 nM.

On to `O=C(c1ccc(OCc2ccc(Cl)s2)cc1)N1CC(N2CCN(C(=O)C(F)(F)F)CC2)C1` [Cpd 961], for which the Kd worked out at 576 nM.

Regarding `O=C(c1ccccc1)N1CCN(C2CN(C(=O)c3ccc(CNc4c(F)cccc4F)cc3)C2)CC1` [Cpd 556], the dissociation constant Kd came to 97 nM.

On to `O=C(c1ccccc1)N1CCN(C2CN(C(=O)c3ccc(Br)cc3)C2)CC1` [Cpd 27, 1-{1-[(4-Bromophenyl)carbonyl]azetidin-3-yl}-4-(phenylcarbonyl)piperazine], for which the dissociation constant Kd was 4550 nM.

For `O=C(c1ccc(-c2ccccc2)cc1)N1CC(N2CCN(C(=O)c3nccs3)C(c3ccccc3)C2)C1` (stereo not shown) [Cpd 1404, 4-[1-(Biphenyl-4-ylcarbonyl)azetidin-3-yl]-2-phenyl-1-(1,3-thiazol-2-ylcarbonyl)piperazine], the dissociation constant (Kd) is > 31200 nM.

On to `O=C(c1ccccc1)N1CCN(C2CN(C(=O)c3ccc(Oc4ccccc4)cc3)C2)CC1` [Cpd 32, 1-{1-[(4-Phenoxyphenyl)carbonyl]azetidin-3-yl}-4-(phenylcarbonyl)piperazine], for which the equilibrium dissociation constant (Kd) worked out at 192 nM.

In the case of `O=C(c1ccc(CSc2cccc(Cl)c2)cc1)N1CC(N2CCN(C(=O)c3nccs3)CC2)C1` [Cpd 454], the equilibrium dissociation constant (Kd) stood at 14.7 nM.

With `O=C(c1ccccc1)N1CCN(C2CN(C(=O)c3ccc(-c4ccc(F)cc4)cc3)C2)CC1` [Cpd 33, 1-{1-[(4′-Fluorobiphenyl-4-yl)carbonyl]azetidin-3-yl}-4-(phenylcarbonyl)piperazine], the Kd was 9.1 nM.

For the compound `O=C(c1ccc(SCc2cccc(Cl)c2)cc1)N1CC(N2CCN(C(=O)c3nccs3)CC2)C1` [Cpd 412, 1-[1-({4-[(3-Chlorobenzyl)sulfanyl]phenyl}carbonyl)azetidin-3-yl]-4-(1,3-thiazol-2-ylcarbonyl)piperazine], the Kd amounted to 10 nM.

Staying with this test, now noted: ThermoFluor thermal stability binding assay, read-out: MGL mutant ThermoFluor Kd.
For `O=C(c1ccc2c(c1)CCCN2c1cccc(C(F)(F)F)c1)N1CC(N2CCN(C(=O)c3nccs3)CC2)C1` [Cpd 374, 6-({3-[4-(1,3-Thiazol-2-ylcarbonyl)piperazin-1-yl]azetidin-1-yl}carbonyl)-1-[3-(trifluoromethyl)phenyl]-1,2,3,4-tetrahydroquinoline], the Kd turned out to be 2.2 nM.

On to `Cc1nc(-c2ccc(F)cc2)sc1C(=O)N1CC(N2CCN(C(=O)c3cscn3)CC2)C1` [Cpd 1386], for which the dissociation constant Kd is 133 nM.

`O=C(c1cscn1)N1CCN(C2CN(C(=O)c3csc(-c4cc(Cl)cc(Cl)c4)n3)C2)CC1` [Cpd 1395]: the dissociation constant Kd amounted to 1810 nM.

Consider `CC(=O)N1c2ccc(Br)cc2CCC1C(=O)N1CC(N2CCN(C(=O)c3nccs3)CC2)C1` (stereo not shown) [Cpd 376, 1-Acetyl-6-bromo-2-({3-[4-(1,3-thiazol-2-ylcarbonyl)piperazin-1-yl]azetidin-1-yl}carbonyl)-1,2,3,4-tetrahydroquinoline], for which the dissociation constant (Kd) worked out at 7140 nM.

Turning to `O=C(c1nccs1)N1CCN(C2CN(C(=O)c3cnn(-c4ccccc4)c3C(F)(F)F)C2)CC1` [Cpd 1392], the dissociation constant (Kd) worked out at 659 nM.

With `O=C(c1ccccc1)N1CCN(C2CN(C(=O)c3ccc(-c4cccc(C(F)(F)F)c4)cc3F)C2)CC1` [Cpd 246, 1-(1-{[3-Fluoro-3′-(trifluoromethyl)biphenyl-4-yl]carbonyl}azetidin-3-yl)-4-(phenylcarbonyl)piperazine], the Kd turned out to be 16.7 nM.

Turning to `O=C(c1cscn1)N1CCN(C2CN(C(=O)c3cnn(-c4ccccc4)c3C(F)(F)F)C2)CC1` [Cpd 1477], the Kd is > 31200 nM.

For the compound `CC(=O)N1CCC(c2ccc(C(=O)N3CC(N4CCN(C(=O)c5ccccc5)CC4)C3)cc2)CC1` [Cpd 546], the Kd worked out at 12400 nM.

Take `CC(C)(C)OC(=O)N1CCC(c2cccc(C(=O)N3CC(N4CCN(C(=O)c5ccccc5)CC4)C3)c2)CC1` [Cpd 538]: the Kd came out at 2590 nM.

With `CC(=O)Nc1cccc(-c2ccc(C(=O)N3CC(N4CCN(C(=O)c5nccs5)CC4)C3)cc2)c1` [Cpd 234, N-[4′-({3-[4-(1,3-Thiazol-2-ylcarbonyl)piperazin-1-yl]azetidin-1-yl}carbonyl)biphenyl-3-yl]acetamide], the Kd was found to be 47.6 nM.

As for `O=C(c1nccs1)N1CCN(C2CN(C(=O)c3sc4cc(-c5ccccc5)ccc4c3Cl)C2)CC1` [Cpd 343, 1-{1-[(3-Chloro-6-phenyl-1-benzothiophen-2-yl)carbonyl]azetidin-3-3yl}-4-(1,3-thiazol-2-ylcarbonyl)piperazine], the dissociation constant (Kd) is 0.4 nM.

Regarding `O=C(c1ccc(-c2ccccc2)cc1)N1CC(N2CCN(C(=O)c3cscn3)C(c3ccccc3)C2)C1` (stereo not shown) [Cpd 1481], the Kd is > 31200 nM.

For `O=C(c1ccc(OCc2ccc(Cl)c(Cl)c2)c(Cl)c1)N1CC(N2CCN(C(=O)c3nccs3)CC2)C1` [Cpd 404], the dissociation constant (Kd) was determined as 1.7 nM.

Turning to `O=C(c1nccs1)N1CCN(C2CN(C(=O)c3nc(-c4ccccc4)oc3C(F)(F)F)C2)CC1` [Cpd 1385], the dissociation constant Kd came out at 206 nM.

For the origin of these results see patent US8362000B2, “Azetidinyl diamides as monoacylglycerol lipase inhibitors” (Janssen Pharmaceutica NV, priority 2009, dated 2013).
